One assay has as its system A549. Description: In vitro antiproliferative activity, SRB assay, A549. It counts as cell-based, human. The conditions noted are these: for IC50: read-out: Antiproliferative activity IC50, A549.
A further assay relates to MCF-7. Briefly: In vitro antiproliferative activity, SRB assay, MCF-7. In kind it is cell-based, human. The conditions noted are these: for IC50: read-out: Antiproliferative activity IC50, MCF-7. On the technique in general: Sulforhodamine B stains cellular protein and so reports cell mass.
In a further assay the test system is LoVo/DX. Briefly: In vitro antiproliferative activity, SRB assay, doxorubicin-resistant LoVo/DX. It counts as cell-based, human. The conditions noted are these: for Resistance index (RI): RI = IC50 LoVo/DX / IC50 LoVo; for IC50: 72 h.
In a further assay the test system is BALB/3T3. Briefly: In vitro antiproliferative activity, SRB assay, normal fibroblasts BALB/3T3. In kind it is cell-based. The note with it: normal murine embryonic fibroblast BALB/3T3, 72 h, mean ± SD.
In the next assay the test system is LoVo. Description: In vitro antiproliferative activity, SRB assay, LoVo. It counts as cell-based, human. The conditions noted are these: for IC50: 72 h, read-out: Antiproliferative activity IC50, LoVo.
In assay [1] the test system is A549, MCF-7, LoVo, and LoVo/DX cells. Description: In vitro antiproliferative activity, SRB assay, summary over the tumor cell lines tested. It counts as cell-based. The note with it: Homo sapiens, read-out: IC50, span over all tumor cell lines tested. An excerpt:
. Detailed information concerning antiproliferation assay can be found in Supplementary Materials. […]
neutralized with 4M NaOH to pH~10 and extracted four times with EtOAc. The organic layers were combined, washed with brine, dried over Na2SO4, filtered off and evaporated under reduced pressure. The residue was purified using column flash chromatography (silica gel; DCM/MeOH, 20/1 v/v) and next lyophilized from dioxane to give the pure product 3 as a yellow solid with a yield of 73%.
In vitro antiproliferative activity
Cell lines and culturing conditions
Four human cancer cell lines and one murine normal cell line were used to evaluate antiproliferative […]
adenocarcinoma (MCF-7), human colon adenocarcinoma cell lines sensitive and resistant to doxorubicin (LoVo) and (LoVo/DX) respectively, and normal murine embryonic fibroblast cell line (BALB/3T3). The A549 cell line was purchased from the European Collection of Authenticated Cell Cultures (ECACC, Salisbury, UK). The MCF-7, LoVo and LoVo/DX cell lines was purchased from American Type Culture Collection (ATCC, Manassas, VA, USA). All the cell lines are maintained in the Institute of Immunology and Experimental Therapy (IIET), Wroclaw, Poland. […]

The mark [2] stands for this setting: Homo sapiens, LoVo/DX, read-out: Antiproliferative activity IC50, LoVo/DX, doxorubicin-resistant subline LoVo/DX, 72 h, SRB, mean ± SD.
[3] abbreviates: read-out: Antiproliferative activity IC50, LoVo/DX, doxorubicin-resistant subline LoVo/DX, SRB, mean ± SD.

Like-named read-outs stand apart in the source and are kept apart here.

On to `N.N.[Cl][Pt][Cl]` [Cisplatin, cisplatin, reference compound], for which the IC50 came to 4920 ± 1850 nM in the assay with A549 (human lung adenocarcinoma A549, 72 h, SRB, mean ± SD); 5810 ± 2610 nM in the assay on MCF-7 (human breast adenocarcinoma MCF-7, 72 h, SRB, mean ± SD); 5010 ± 1560 nM in the assay with LoVo/DX (doxorubicin-resistant subline LoVo/DX, SRB, mean ± SD, read-out: Antiproliferative activity IC50, LoVo/DX); 3970 ± 995 nM in the assay on BALB/3T3; 5460 ± 1410 nM with LoVo (human colon adenocarcinoma LoVo, SRB, mean ± SD). The “Resistance index (RI)” value in the assay with LoVo/DX is 0.9.

On to `CNc1ccc2c(cc1=O)C(NC(C)=O)CCc1cc(OC)c(OC)c(OC)c1-2` (stereo not shown) [Compound 2, 10-N-methylaminocolchicine], for which the IC50 with A549 (Homo sapiens, A549, 72 h) amounted to 7.2 ± 1.3 nM; in the assay on LoVo (Homo sapiens, LoVo), 1.2 ± 0.2 nM.

`CNc1ccc2c(cc1=O)[C@@H](N)CCc1cc(OC)c(OC)c(OC)c1-2` [Compound 3, N-deacetyl-10-methylamino-10-demethoxycolchicine]: the IC50 in the assay with A549 (Homo sapiens, A549, 72 h) amounted to 8.6 ± 3.9 nM; in the assay on MCF-7 (Homo sapiens, MCF7, 72 h), 9.8 ± 4.5 nM; with LoVo (Homo sapiens, LoVo), 7.4 ± 2.7 nM.

In the case of `CCN[C@H]1CCc2cc(OC)c(OC)c(OC)c2-c2ccc(NC)c(=O)cc21` [Compound 4], the IC50 was 9.4 ± 3.2 nM in the assay with A549 (Homo sapiens, A549, 72 h); 8.7 ± 3.3 nM in the assay on MCF-7 (Homo sapiens, MCF7, 72 h); 62 ± 7.5 nM in the assay on LoVo/DX (setting [2]); 7.3 ± 2.5 nM with LoVo (Homo sapiens, LoVo). For the same molecule, the “Resistance index (RI)” value in the assay on LoVo/DX was 8.5.

In the case of `CCCN[C@H]1CCc2cc(OC)c(OC)c(OC)c2-c2ccc(NC)c(=O)cc21` [Compound 5], the IC50 in the assay on A549 (Homo sapiens, A549, 72 h) was found to be 10.5 ± 0.7 nM; with MCF-7 (Homo sapiens, MCF7, 72 h) it was 10.4 ± 0.6 nM; in the assay with LoVo/DX (setting [2]), 17.2 ± 6.7 nM; in the assay with LoVo (Homo sapiens, LoVo), 5 ± 0.1 nM. In the assay with LoVo/DX, the “Resistance index (RI)” value stood at 3.5.

Take `CCCCN[C@H]1CCc2cc(OC)c(OC)c(OC)c2-c2ccc(NC)c(=O)cc21` [Compound 6]: the IC50 in the assay on A549 (Homo sapiens, A549, 72 h) came to 8.1 ± 2.6 nM; with MCF-7 (Homo sapiens, MCF7, 72 h), 8.7 ± 3.1 nM; in the assay with LoVo/DX (setting [2]) it was 13.3 ± 5.8 nM; in the assay on LoVo (Homo sapiens, LoVo) it was 7.8 ± 1.3 nM. In addition, the “Resistance index (RI)” value in the assay with LoVo/DX amounted to 1.7.

As to `CCCCCCCCCCN[C@H]1CCc2cc(OC)c(OC)c(OC)c2-c2ccc(NC)c(=O)cc21` [Compound 7], the IC50 worked out at 88.4 ± 3.2 nM with A549 (Homo sapiens, A549, 72 h); 75.2 ± 10.8 nM with MCF-7 (Homo sapiens, MCF7, 72 h); 99.5 ± 35.5 nM in the assay on LoVo/DX (setting [2]); 46.6 ± 15.5 nM in the assay with LoVo (Homo sapiens, LoVo). The “Resistance index (RI)” value in the assay on LoVo/DX is listed as 2.1.

Take `CNc1ccc2c(cc1=O)[C@@H](NCC(C)C)CCc1cc(OC)c(OC)c(OC)c1-2` [Compound 8]: the IC50 in the assay on A549 (Homo sapiens, A549, 72 h) was 9.6 ± 1.3 nM; in the assay with MCF-7 (Homo sapiens, MCF7, 72 h) it was 9.7 ± 1.5 nM; in the assay on LoVo/DX (setting [2]), at most 10 nM; with LoVo/DX (setting [3]), 8.5 ± 1.1 nM; in the assay with LoVo (Homo sapiens, LoVo), 7.8 ± 1 nM. Moreover, the “Resistance index (RI)” value with LoVo/DX was 1.1.

For the molecule `CNc1ccc2c(cc1=O)[C@@H](NCCO)CCc1cc(OC)c(OC)c(OC)c1-2` [Compound 9], the IC50 in the assay on A549 (Homo sapiens, A549, 72 h) was 9.2 ± 2.2 nM; with MCF-7 (Homo sapiens, MCF7, 72 h) it was 10.1 ± 1.2 nM; with LoVo/DX (setting [2]), 132 ± 37.5 nM; in the assay with LoVo (Homo sapiens, LoVo), 5.6 ± 1.5 nM. Moreover, the “Resistance index (RI)” value in the assay with LoVo/DX is listed as 23.6.

For `CNc1ccc2c(cc1=O)[C@@H](NCCC#N)CCc1cc(OC)c(OC)c(OC)c1-2` [Compound 10], the IC50 with A549 (Homo sapiens, A549, 72 h) came to 9 ± 1 nM; in the assay with MCF-7 (Homo sapiens, MCF7, 72 h) it was 7.5 ± 0.7 nM; in the assay with LoVo/DX (setting [2]) it was 51.5 ± 8.6 nM; with LoVo (Homo sapiens, LoVo), 2 ± 0.6 nM. Also, the “Resistance index (RI)” value in the assay on LoVo/DX came out at 25.9.

Regarding `CNc1ccc2c(cc1=O)[C@@H](NCCCCl)CCc1cc(OC)c(OC)c(OC)c1-2` [Compound 11], the IC50 in the assay with A549 (Homo sapiens, A549, 72 h) came to 8.4 ± 2.2 nM; in the assay with MCF-7 (Homo sapiens, MCF7, 72 h) it was 7.6 ± 2.8 nM; in the assay on LoVo/DX (setting [2]), 12.8 ± 3.3 nM; with LoVo (Homo sapiens, LoVo), 1.3 ± 0.3 nM. For the same molecule, the “Resistance index (RI)” value with LoVo/DX came to 10.0.

Regarding `CNc1ccc2c(cc1=O)[C@@H](NCCC(F)(F)F)CCc1cc(OC)c(OC)c(OC)c1-2` [Compound 12], the IC50 was found to be 9.5 ± 0.2 nM in the assay on A549 (Homo sapiens, A549, 72 h); 9 ± 1.7 nM with MCF-7 (Homo sapiens, MCF7, 72 h); 8.2 ± 0.6 nM with LoVo/DX (setting [2]); 2.3 ± 1.3 nM in the assay on LoVo (Homo sapiens, LoVo). The “Resistance index (RI)” value in the assay on LoVo/DX worked out at 3.6.

As to `CNc1ccc2c(cc1=O)[C@@H](NCc1ccccc1)CCc1cc(OC)c(OC)c(OC)c1-2` [Compound 13], the IC50 in the assay on A549 (Homo sapiens, A549, 72 h) is 4.6 ± 1.8 nM; in the assay on MCF-7 (Homo sapiens, MCF7, 72 h), 7.3 ± 4.4 nM; in the assay with LoVo/DX (setting [2]), 6 ± 0.8 nM; in the assay with LoVo (Homo sapiens, LoVo) it was 0.9 ± 0.4 nM. Besides, the “Resistance index (RI)” value in the assay with LoVo/DX is reported as 7.0.

On to `CNc1ccc2c(cc1=O)[C@@H](NCc1ccccc1Cl)CCc1cc(OC)c(OC)c(OC)c1-2` [Compound 14, N-(2-chlorobenzyl)-10-methylaminocolchicine], for which the IC50 in the assay with A549 (Homo sapiens, A549, 72 h) is 1.1 ± 0.7 nM; in the assay on MCF-7 (Homo sapiens, MCF7, 72 h), 0.7 ± 0.4 nM; in the assay with LoVo/DX (setting [2]), 1.6 ± 1 nM; in assay [1], 0.1 to 1.6 nM; with LoVo (Homo sapiens, LoVo) it was 0.1 ± 0.02 nM. The “Selectivity index (SI), A549” value in the assay on A549 (SI = IC50 BALB/3T3 / IC50 A549) was determined as 4.1. In the assay on MCF-7 (SI = IC50 BALB/3T3 / IC50 MCF-7), the “Selectivity index (SI), MCF-7” value is reported as 6.1. In addition, the “Selectivity index (SI), LoVo/DX” value with LoVo/DX (SI = IC50 BALB/3T3 / IC50 LoVo/DX) is recorded as 2.8. The “Potency relative to unmodified colchicine 1, LoVo/DX” value in the assay with LoVo/DX (times more potent than 1 towards LoVo/DX) is on record as “approx. 440 times”.

Take `CNc1ccc2c(cc1=O)[C@@H](NCc1ccc(O)cc1)CCc1cc(OC)c(OC)c(OC)c1-2` [Compound 15]: the IC50 in the assay on A549 (Homo sapiens, A549, 72 h) turned out to be 8.9 ± 1.4 nM; in the assay with MCF-7 (Homo sapiens, MCF7, 72 h), 8.5 ± 0.9 nM; in the assay on LoVo/DX (setting [2]), 72.2 ± 12.5 nM; in the assay on LoVo (Homo sapiens, LoVo) it was 5.2 ± 0.5 nM. Further, in the assay on LoVo/DX, the “Resistance index (RI)” value is on record as 13.9.

With `CNc1ccc2c(cc1=O)[C@@H](NCc1ccncc1)CCc1cc(OC)c(OC)c(OC)c1-2` [Compound 16], the IC50 amounted to 8.9 ± 1.7 nM in the assay on A549 (Homo sapiens, A549, 72 h); 9.6 ± 1.8 nM in the assay with MCF-7 (Homo sapiens, MCF7, 72 h); 48.1 ± 14.5 nM in the assay on LoVo/DX (setting [2]); 5.2 ± 1.9 nM in the assay on LoVo (Homo sapiens, LoVo). Also, the “Resistance index (RI)” value in the assay on LoVo/DX came to 9.3.

For the molecule `CNc1ccc2c(cc1=O)[C@@H](NCc1cccs1)CCc1cc(OC)c(OC)c(OC)c1-2` [Compound 17], the IC50 in the assay with A549 (Homo sapiens, A549, 72 h) is 9.4 ± 0.5 nM; in the assay with MCF-7 (Homo sapiens, MCF7, 72 h), 9.3 ± 0.6 nM; in the assay with LoVo/DX (setting [2]), at most 10 nM; with LoVo/DX (setting [3]), 7.9 ± 1 nM; in the assay with LoVo (Homo sapiens, LoVo), 0.9 ± 0.3 nM. In the assay with LoVo/DX, the “Resistance index (RI)” value turned out to be 8.9. Also, the “Selectivity index (SI), LoVo” value with LoVo (SI = IC50 BALB/3T3 / IC50 LoVo) is over 3.
